In patent publication US10058533B2, “Pharmaceutical composition containing Ginkgolide B and Xa factor inhibitor, preparation method thereof and use thereof” (CHENGDU BAIYU PHARMACEUTICAL CO., LTD, priority 2014, dated 2018):

What was measured:
factor Xa [1] = assay: Plasma anti-factor Xa activity, rabbit wound-limb deep venous thrombosis forming model; assay type: in vivo
Procedure: (§1) Eight were taken as control group and the rest were treated by a striking device. Striking area was a round surface with the diameter of 1.5 cm, the wounding energy was calculated according to Ep=mgh, and the energy of each striking of the iron rod is 7.5 J.
(§2) Specifically: the rabbit was anesthetized by intravenous injection of 3% pentobarbital sodium at ear edge with the dose of 1 ml/kg. The rabbit was kept laying down at right side prostrate position and the left thigh was set on the striking platform. Found the trochanter of the left femur and set the striking head attached to area from the trochanter to the 1.5 cm below. The self-made striking device was used for striking the outer side of the thigh near-end, and the plaster was used for fixing the left limb on the hip/knee-bending area. When the plaster bandage was applied and the right hip was examined to move freely, the rabbit was kept to lay down until solidification. After the model establishment, the animal was allowed to drink water normally and was fed with granular food. No anticoagulant or antibiotic was used.
(§3) Animals were grouped after modeling. The drug was fed according to table 4 via oral gavage, once a day for 7 days continuously.
(§4) At 0.5, 1.0, 2.0, 3.0 and 4.0 h after the first administration, blood was taken from ear central artery. Plasma was separated and aPPT, PT and the anti-factor Xa activity were determined on an automatic coagulation detector.

factor Xa [2] = assay: Anti-coagulation factor Xa activity in vitro (chromogenic substrate assay); assay type: biochemical, rabbit
Procedure: A chromogenic substrate assay was adopted, and plasma anti-Xa activity was determined on a microplate reader according to a kit specification and reference documents.

[3] = system: PAF (Platelet activating factor); assay: Plasma PAF content by ELISA, rabbit wound-limb deep venous thrombosis forming model; assay type: in vivo; conditions: for PAF content (x ± SD): rabbit wound-limb deep venous thrombosis model, *p<0.05, **p<0.01, ***p<0.001 vs model group
Procedure: as §2, with “Eight were taken as control group and the rest were treated by a striking device. […] Specifically:” for “Specifically:”, “Found the trochanter of the left femur and set the striking head attached to area from the trochanter to the 1.5 cm below.” left out, “used. Animals were grouped after modeling. The drug was fed according to table 4 via oral gavage, once a day for 7 days continuously. At 0.5, 1.0, 2.0, 3.0 and 4.0 h after the first administration, blood was taken from ear central artery. Plasma was separated and the content of PAF was determined by ELISA.” for “used.”

[4] = system: coagulation function (PT); assay: PT of coagulation function, rabbit wound-limb deep venous thrombosis forming model; assay type: in vivo; conditions: 5 mg/kg i.g., x ± SD
Procedure: as §1, §2, §3, §4

[5] = system: coagulation function (aPTT); assay: aPTT of coagulation function, rabbit wound-limb deep venous thrombosis forming model; assay type: in vivo; conditions: for aPPT: 5 mg/kg i.g., x ± SD
Procedure: as §1, §2, §3, §4

[6] = system: venous thromboembolism (VTE); conditions: cited from earlier work
[7] = in vivo; cited from earlier work
[8] = plasma, 5 mg/kg i.g., 0.5 h after administration, x ± SD
[9] = plasma, 5 mg/kg i.g., 1 h after administration, x ± SD
[10] = plasma, 5 mg/kg i.g., 2 h after administration, x ± SD
[11] = plasma, 5 mg/kg i.g., 3 h after administration, x ± SD
[12] = plasma, 5 mg/kg i.g., 4 h after administration, x ± SD

Compound: CN(C)Cc1nccn1-c1ccc(NC(=O)c2cc(C(F)(F)F)nn2-c2ccc3onc(N)c3c2)c(F)c1 [Razaxaban]
- anti-factor Xa activity (factor Xa [1]; [8]): 0.20 ± 0.14 IU/ml
- anti-factor Xa activity (factor Xa [1]; [9]): 0.18 ± 0.05 IU/ml
- anti-factor Xa activity (factor Xa [1]; [10]): 0.23 ± 0.08 IU/ml
- anti-factor Xa activity (factor Xa [1]; [11]): 1.31 ± 0.30 IU/ml
- anti-factor Xa activity (factor Xa [1]; [12]): 1.32 ± 0.09 IU/ml
- anti-factor Xa activity (factor Xa [2]): 0.86 IU/ml
- PAF content (x ± SD) ([3]; 0.5 h after administration): 889.42 ± 326.32 ng/L
- PAF content (x ± SD) ([3]; 1 h after administration): 1501.29 ± 131.10 ng/L
- PAF content (x ± SD) ([3]; 3 h after administration): 1641.26 ± 242.32 ng/L
- PAF content compared to model group ([3]; 4 h after administration): decreased significantly
- PT ([4]; 0.5 h after administration): 6.71 ± 0.25 s
- PT ([4]; 1 h after administration): 7.41 ± 0.51 s
- PT ([4]; 2 h after administration): 6.47 ± 0.25 s
- PT ([4]; 3 h after administration): 6.47 ± 0.41 s
- PT ([4]; 4 h after administration): 6.70 ± 0.25 s
- aPPT ([5]; 0.5 h after administration): 20.13 ± 6.74 s
- aPPT ([5]; 1 h after administration): 26.23 ± 8.43 s
- aPPT ([5]; 2 h after administration): 22.33 ± 4.46 s
- aPPT ([5]; 3 h after administration): 35.75 ± 8.68 s
- aPPT ([5]; 4 h after administration): 29.65 ± 9.72 s
- aPTT compared with model group ([5]; 1 h after administration): no obvious extension
- VTE occurrence rate compared with enoxaparin ([6]; patients taking Razaxaban 25 mg, total knee replacement): significantly lower
- occurrence rate of large bleeding compared with enoxaparin ([6]; patients taking Razaxaban 25 mg): similar
- large bleeding compared with Enoxaparin ([6]; patients taking Razaxaban 50-100 mg): more likely to have large bleeding

Compound: Otamixaban
- anti-factor Xa activity (factor Xa [1]; [8]): 0.19 ± 0.04 IU/ml
- anti-factor Xa activity (factor Xa [1]; [9]): 0.25 ± 0.10 IU/ml
- anti-factor Xa activity (factor Xa [1]; [10]): 0.26 ± 0.14 IU/ml
- anti-factor Xa activity (factor Xa [1]; [11]): 1.25 ± 0.12 IU/ml
- anti-factor Xa activity (factor Xa [1]; [12]): 1.24 ± 0.06 IU/ml
- anti-factor Xa activity (factor Xa [2]): 1.03 IU/ml
- PAF content (x ± SD) ([3]; 1 h after administration): 1526.56 ± 212.31 ng/L
- PAF content (x ± SD) ([3]; 2 h after administration): 1123.45 ± 224.51 ng/L
- PAF content (x ± SD) ([3]; 3 h after administration): 1745.52 ± 356.26 ng/L
- PAF content compared to model group ([3]; 4 h after administration): decreased significantly
- PT ([4]; 0.5 h after administration): 6.58 ± 0.45 s
- PT ([4]; 1 h after administration): 6.74 ± 0.26 s
- PT ([4]; 2 h after administration): 6.52 ± 0.43 s
- PT ([4]; 3 h after administration): 6.62 ± 0.42 s
- PT ([4]; 4 h after administration): 7.82 ± 0.31 s
- aPPT ([5]; 0.5 h after administration): 21.67 ± 9.42 s
- aPPT ([5]; 1 h after administration): 25.71 ± 7.68 s
- aPPT ([5]; 2 h after administration): 25.61 ± 6.75 s
- aPPT ([5]; 3 h after administration): 34.62 ± 7.59 s
- aPPT ([5]; 4 h after administration): 30.16 ± 9.37 s
- aPTT compared with model group ([5]; 1 h after administration): no obvious extension
- excretion through kidney [7]: less than 25%

Compound: CC1C(=O)OC2C(O)C34C5CC(C(C)(C)C)C36C(OC(=O)C6O)OC4(C(=O)O5)C12O (stereo not shown) [Ginkgolide B]
- anti-factor Xa activity (factor Xa [1]; 0.5 h-4 h after administration): increased with time
- anti-factor Xa activity (factor Xa [1]; [8]): 0.08 ± 0.07 IU/ml
- anti-factor Xa activity (factor Xa [1]; [9]): 0.10 ± 0.10 IU/ml
- anti-factor Xa activity (factor Xa [1]; [10]): 0.35 ± 0.22 IU/ml
- anti-factor Xa activity (factor Xa [1]; [11]): 0.74 ± 0.15 IU/ml
- anti-factor Xa activity (factor Xa [1]; [12]): 0.65 ± 0.12 IU/ml
- anti-factor Xa activity (factor Xa [2]): 0.57 IU/ml
- PAF content (x ± SD) ([3]; 1 h after administration): 1255.71 ± 300.73 ng/L
- PAF content compared to model group ([3]; 2 h after administration): decreased significantly
- PAF content (x ± SD) ([3]; 3 h after administration): 1656.43 ± 259.36 ng/L
- PT ([4]; 0.5 h after administration): 6.76 ± 0.32 s
- PT ([4]; 1 h after administration): 6.79 ± 0.27 s
- PT ([4]; 2 h after administration): 6.75 ± 0.36 s
- PT ([4]; 3 h after administration): 6.72 ± 0.24 s
- PT ([4]; 4 h after administration): 6.68 ± 0.23 s
- aPPT ([5]; 0.5 h after administration): 25.89 ± 8.15 s
- aPPT ([5]; 1 h after administration): 30.65 ± 6.79 s
- aPPT ([5]; 2 h after administration): 25.83 ± 5.96 s
- aPPT ([5]; 3 h after administration): 34.30 ± 6.56 s
- aPPT ([5]; 4 h after administration): 31.92 ± 7.77 s
- aPTT compared with model group ([5]; 1 h after administration): obviously extended
